Reference: patent US20180353486A1, “METHODS AND PHARMACEUTICAL COMPOSITIONS FOR THE TREATMENT OF DARIER DISEASE” (INSERM (Institut National de la Sante et de la Recherche …, priority 2015, published 2018)

What was measured:
[1] = tested on: NFATc1 in normal keratinocytes (NKs); assay: NFATc1 expression and nuclear localization (qRT-PCR, western blot) in thapsigargin-treated normal keratinocytes; assay type: cell-based, human; settings: 1 μM TG
Description: (§1) FIG. 4: TG-treated NK display the same features as DK. NKs were pretreated (TG) or not (−) with 1 μM of TG for 24 hours. a-b. […] Reversion by CsA treatment. c-d. TG-treated NK display premature differentiation markers up-regulation. SPRR2, LCE3B-E and loricrin expression is induced after 24 h (TG24) and 48 h (TG48) of TG-treatment in NK. *P<0.05. Results are from NKs from two donors (a) and one donor (b-d) and are representative of two independent experiments from two NKs.
To test whether loss of SERCA2 function is sufficient to induce NFATc1 overexpression and activation associated with premature expression of EDC genes, NKs were treated with 1 μM of thapsigargin (TG), a SERCA pumps inhibitor, for 24 and/or 48 hours to mimick SERCA2 dysfunction in DK.

[2] = tested on: LCE3D, LCE3E, SPRR2B, SPRR2D and loricrin in normal keratinocytes (NKs); assay: Expression of EDC differentiation genes (qRT-PCR, western blot) in thapsigargin-treated normal keratinocytes; assay type: cell-based, human; settings: 1 μM TG, 24 and/or 48 hours
Description: as §1
In order to confirm that upregulation of differentiation genes is due to SERCA2 defect, qRT-PCR and western blot analysis were performed on TG-treated NKs.

[3] = tested on: LCE3D, LCE3E, SPRR2B, SPRR2D and loricrin in Darier keratinocytes (DKs); assay: Expression of EDC differentiation genes (qRT-PCR, western blot) in Darier keratinocytes after NFATc1 inhibition; assay type: cell-based, human
Description: FIG. 5: Calcineurin inhibitors and NFATc1 inhibition decreased premature differentiation in DK. Quantitative RT-PCR and western blot were performed on mRNA and protein extracts from five DKs after 48 h Tacrolimus (a-b) or 24 h and 48 h CsA treatment (b). For (a), results are expressed as fold repression compared to non-treated DK and are the mean+/−SEM of five DK. Results are representative of two independent experiments. Asterisks represent statistical significance versus the appropriate control in each case. *P<0.05 and***P<0.001 c. Relative efficiency of small interfering RNA (siRNA)-mediated NFATc1 silencing compared to scrambled control by quantitative PCR and western blotting. Decreased expression of differentiation genes after NFATc1 specific inhibition at mRNA (d). For (d), results are expressed as fold repression compared to DKs transfected with scrambled si-RNA and are the mean+/−SEM of four DK from one experiment.
To substantiate the role of NFATc1 as an enhancer of EDC genes expression in DKs and TG-treated NKs grown in basal condition, we inhibited NFATc1 activation indirectly (using calcineurin inhibitors) and directly (using small interfering RNA-mediated NFATc1 silencing), in Darier keratinocytes.
DKs maintained in proliferating conditions were treated with 100 ng ml^−1 of Tacrolimus for 24 hours.

[4] = tested on: NFATc1 nuclear localization in Darier keratinocytes (DKs); assay: NFATc1 nuclear/cytoplasmic localization by western blot in Darier keratinocytes; assay type: cell-based, human; settings: 100 ng/ml Tacrolimus, 24 hours
Description: Nuclear (N) and cytoplasmic (C) cell extracts were immunoblotted for NFATc1 and actin for normalization.
Therefore, we treated healthy keratinocytes and DKs with 10 μM of CsA or 100 ng/ml of Tacrolimus for 24 hours. Western blot experiments using a specific antibody directed against NFATc1 were performed on nuclear and cytosolic extracts.

Darier disease = settings: few isolated cases, when retinoids were not recommended; systemic Cyclosporin, topical Tacrolimus; cited from earlier work

| SMILES | NFATc1 expression (quantitative RT-PCR) ([1]; 24 hours) | NFATc1 protein in nuclear extracts (western blot) ([1]; vs non-treated NKs) | Expression of LCE3D, LCE3E, SPRR2B, SPRR2D and loricrin transcripts and proteins (qRT-PCR, western blot) [2] | Expression of LCE3D, LCE3E, SPRR2B, SPRR2D and loricrin (quantitative RT-PCR) ([3]; DKs in proliferating conditions, 100 ng ml^−1 Tacrolimus, 24 hours) | LCE3B-E, SPRR2 and loricrin protein expression (western blot) ([3]; DKs, Tacrolimus treatment) | NFATc1 localization in nuclear and cytosolic extracts (western blot) [4] | Treatment of Darier disease in patients (Darier disease) |
| --- | --- | --- | --- | --- | --- | --- | --- |
| C/C=C(/C)C(=O)O[C@H]1C(C)=C2[C@H]([C@@H]1OC(=O)CCCCCCC)[C@@](C)(OC(C)=O)C[C@H](OC(=O)CCC)[C@@]1(O)[C@H]2OC(=O)[C@@]1(C)O [TG, thapsigargin] | increased NFATc1 expression | a higher amount of NFATc1 protein was located in the nucleus | increased expression | – | – | – | – |
| C=CC[C@@H]1/C=C(\C)C[C@H](C)C[C@H](OC)[C@H]2O[C@@](O)(C(=O)C(=O)N3CCCC[C@H]3C(=O)O[C@H](/C(C)=C/[C@@H]3CC[C@@H](O)[C@H](OC)C3)[C@H](C)[C@@H](O)CC1=O)[C@H](C)C[C@@H]2OC [Tacrolimus] | – | – | – | significantly decreased | reduced LCE3B-E, SPRR2 and loricrin expression | induced NFATc1 translocation from the nucleus to the cytoplasm | successfully used |
